Assay results reported in US8138158B2, “Compositions and methods for therapy for diseases characterized by defective chloride transport” (Children's Hospital & Research Center at Oakland, priority 1997, dated 2012).

Key:
[1] = tested on: intracellular cAMP levels; experiment: Cyclic AMP measurements in Calu-3 cells (competitive immunoassay); type: cell-based, human
Experimental: Cyclic AMP measurements. […] Cellular cAMP levels were measured in non-acetylated samples using a competitive immunoassay for cAMP (R&D systems, Minneapolis, Minn.). The regulatory role of vitamin C on Cl ion channel activity was studied in Calu-3 airway cells which express large amounts of native CFTR as their major Cl conductance ([…]., Widdicombe, J. H. & Wine, J. J. (1994) Am. J. Physiol. 266, […]-[…]). […] Details of the single channel recording are illustrated in FIG. 20C. […] At negative potentials no channel openings were resolved indicating Cl-over-gluconate selectivity. Cyclic AMP is the major intracellular messenger for the activation of CFTR. We tested the possibility that L-ascorbic acid increased intracellular cAMP levels [cAMP], by either turning on cAMP production or preventing cAMP degradation. FIG. 20E compares whole cell cAMP levels of Calu-3 cells challenged with either increasing concentrations of L-ascorbic acid or the cAMP agonist forskolin.

Calu-3 airway epithelia = experiment: Short-circuit current (transepithelial Cl secretion) across Calu-3 airway epithelia, Examples 12-13; type: cell-based, human
Experimental: Short-circuit current measurement. Calu-3 or CF15 cells were grown as monolayers, mounted in Ussing chambers and short-circuit current (ISC) was recorded as described (Illek, B. & Fischer, H. (1998) Am. J. Physiol. 275, L902-L910). At 20-50 second intervals, transepithelial voltage was clamped from zero to 2 mV and the transepithelial resistance (Rte) was calculated. A serosa-to-mucosa-directed Cl gradient was applied. Serosal Ussing chamber solution contained (in mM): 120 NaCl, 20 NaHCO3, 5 KHCO3, 1.2 NaH2PO4, 5.6 glucose, 2.5 CaCl2, 1.2 MgCl2. In mucosal Ussing chamber solutions, all Cl salts were exchanged for gluconate salts.
Vitamin C activation of CFTR-mediated Cl secretion was studied in Calu-3 cells grown as epithelial monolayers (FIG. 21A). Exposure of the apical membrane to maximal concentrations of L-ascorbic acid stimulated transepithelial Cl currents (ISC) in a sustained fashion to 96±11 μA/cm^2 (n=22). Subsequent addition of forskolin further increased ISC to 141±33 μA/cm^2 (n=9, p=0.029). On average, Cl secretion was stimulated by ascorbate to 68% of the currents elicited by forskolin. The Cl channel blocker diphenylcarboxylate (DPC, 4 mM) was added as a measure for the transcellular Cl current decreasing ISC to 30±4 μA/cm^2. When Cl secretion was first stimulated with forskolin (to 106±23 μA/cm^2, n=4) ascorbate had no significant effect on Ise (at 100 μM: ΔICl=−1.5±3.5 μA/cm^2, n=4, not different from zero, one-sample t test). Half-maximal stimulatory constant averaged 36.5±2.9 μm as determined from transepithelial dose-response experiments.
Furthermore, the response to ascorbate in Na-containing medium was blunted in the presence of phloretin, a known inhibitor of the sodium-dependent vitamin C transporters SVCT1 and SVCT2 (Tsukaguchi, H., Tokui, T., Mackenzie, B., Berger, U. V., Chen, X. Z., Wang, Y., Brubaker, R. F. & Hediger, M. A. (1999) Nature 399, 70-75). […] Molecular expression of SVCT1 and SVCT2 transcripts in Calu-3 cells was verified using RT-PCR and DNA sequencing analysis. For comparison, human ciliated tracheal epithelial cultures (hTE) and a nasal cystic fibrosis airway cell line (CF15) were included. […] The recombinantly expressed SVCT2-EGFP fusion protein was targeted exclusively to the apical membrane pole of CF15 epithelia.

ΔF508 CFTR = biological target: T1, ΔF508 CFTR (Mus musculus, UniProt P26361, DEL508-508); experiment: Rectal potential difference (RPD) in mice homozygous for ΔF508 CFTR; type: in vivo
T1 construct: from tissue; host or cells: rectal mucosa of living ΔF508 CF mice (C57Bl6/J), TMAO-treated or water-injected
T1 sequence (P26361 with tags, fused parts or gaps DEL508-508): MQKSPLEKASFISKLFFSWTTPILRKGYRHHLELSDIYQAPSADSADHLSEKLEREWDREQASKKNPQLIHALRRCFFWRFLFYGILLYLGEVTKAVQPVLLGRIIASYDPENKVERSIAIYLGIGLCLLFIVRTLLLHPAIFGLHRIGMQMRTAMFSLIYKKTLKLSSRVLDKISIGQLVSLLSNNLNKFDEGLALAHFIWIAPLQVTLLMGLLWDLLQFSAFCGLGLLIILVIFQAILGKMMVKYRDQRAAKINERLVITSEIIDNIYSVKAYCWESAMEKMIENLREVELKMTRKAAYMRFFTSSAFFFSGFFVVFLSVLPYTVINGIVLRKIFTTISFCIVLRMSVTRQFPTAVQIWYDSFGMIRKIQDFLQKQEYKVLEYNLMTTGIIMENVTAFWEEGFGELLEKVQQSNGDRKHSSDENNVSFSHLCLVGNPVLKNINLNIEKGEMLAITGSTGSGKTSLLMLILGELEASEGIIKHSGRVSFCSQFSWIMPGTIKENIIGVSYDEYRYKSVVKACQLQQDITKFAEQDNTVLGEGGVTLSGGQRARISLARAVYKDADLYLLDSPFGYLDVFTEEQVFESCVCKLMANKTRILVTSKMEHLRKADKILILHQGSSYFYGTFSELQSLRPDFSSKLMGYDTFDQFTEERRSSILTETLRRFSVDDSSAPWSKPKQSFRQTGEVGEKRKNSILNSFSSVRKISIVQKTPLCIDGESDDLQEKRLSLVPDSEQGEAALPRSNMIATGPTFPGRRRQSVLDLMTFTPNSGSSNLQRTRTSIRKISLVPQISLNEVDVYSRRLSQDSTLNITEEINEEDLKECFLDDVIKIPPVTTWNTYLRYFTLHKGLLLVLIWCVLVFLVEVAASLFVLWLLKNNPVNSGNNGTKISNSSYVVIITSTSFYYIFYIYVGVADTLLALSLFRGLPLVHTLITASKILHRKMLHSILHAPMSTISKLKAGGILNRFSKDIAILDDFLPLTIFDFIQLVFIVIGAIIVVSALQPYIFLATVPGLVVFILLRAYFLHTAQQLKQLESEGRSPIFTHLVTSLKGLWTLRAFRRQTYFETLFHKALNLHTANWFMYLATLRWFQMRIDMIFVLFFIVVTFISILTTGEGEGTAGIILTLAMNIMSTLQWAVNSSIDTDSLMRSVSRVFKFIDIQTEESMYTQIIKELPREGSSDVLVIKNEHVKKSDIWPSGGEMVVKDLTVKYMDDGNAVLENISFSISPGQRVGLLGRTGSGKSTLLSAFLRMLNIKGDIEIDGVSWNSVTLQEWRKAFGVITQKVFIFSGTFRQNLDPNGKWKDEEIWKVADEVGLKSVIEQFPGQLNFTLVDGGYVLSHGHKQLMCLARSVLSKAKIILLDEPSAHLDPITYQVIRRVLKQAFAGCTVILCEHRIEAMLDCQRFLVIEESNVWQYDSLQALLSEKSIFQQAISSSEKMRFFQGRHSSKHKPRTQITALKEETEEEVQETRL
Excerpt: CF mice and rectal potential difference (RPD) measurements. Gene-targeted mice homozygous for the ΔF508 mutation (C57Bl6/J) received Golytely® (Braintree Laboratories, Inc.), a diarrhetic supplement, in the drinking water to increase their lifespan (Clarke, L. L., Gawenis, L. R., Franklin, C. L. & Harline, M. C. (1996) Lab. Anim. Sci. 46, 612-8). To correct the maturation defect of ΔF508 CFTR we used the chemical chaperone trimethylamine oxide (TMAO) (Brown, C. R., Hong-Brown, L. Q., Biwersi, J., Verkman, A. S. & Welch, W. J. (1996) Cell Stress Chaperones 1, 117-25). CF mice were injected with 4 mg/g TMAO from a 4 M stock solution every 8 hours for 24 hours, which is a regimen to partially correct the ΔF508 defect in CF mice (Fischer, H., Barbry, P., Illek, B., Sartori, C., Fukuda, N. & Matthay, M. A. (2001) Am. J. Physiol. 281, L52-L57). Controls were water-injected. The RPD assay was performed on mice that were anesthetized with 0.1 mg/g body weight ketamine and 0.01 mg/g body weight azepromazine. RPD was sensed with a 1 M NaCl agar bridge inserted ˜1 cm into the rectum vs. a subcutaneous needle filled with 1 M NaCl. Measurements were performed in Cl free solution containing 100 μm amiloride and 5 mM Ba(OH)2 to isolate the Cl-selective RPD.
In this Example, it was determined whether L-ascorbic acid affected the functional activation of ΔF508 CFTR in a CF-affected organism in vivo. Using gene-targeted mice homozygous for the ΔF508 mutation it was shown previously that the osmolyte trimethylamine oxide (TMAO) effectively supported ΔF508 CFTR trafficking in vivo (Fischer, H., Barbry, P., Illek, B., Sartori, C., Fukuda, N. & Matthay, M. A. (2001) Am. J. Physiol. 281, L52-L57). Accordingly, the effect of L-ascorbic acid was tested in homozygous ΔF508 CF mice treated with TMAO by using the RPD assay as a functional end point measure for mutant ΔF508-CFTR function. FIG. 24A illustrates that TMAO-treated CF mice manifested a detectable response to a maximal dose of L-ascorbic acid (1 mM) or its epimer D-isoascorbic acid (300 μM) and RPD hyperpolarized on average by −3.2±0.8 mV (n=4) and −3.6±1.8 mV (n=3), respectively (FIG. 24B).

EC50 (Calu-3 airway epithelia; Homo sapiens, Calu-3, transepithelial dose-response experiments, read-out: Half-maximal stimulatory constant): 36.5 ± 2.9 µM | RPD hyperpolarized on average by (ΔF508 CFTR; CF mice treated with 4 mg/g TMAO for 24 hours, L-ascorbic acid 1 mM, n=4): −3.2±0.8 mV | ΔRPD (ΔF508 CFTR; water-injected control CF mice, L-ascorbic acid or D-isoascorbic acid, n=9): −1.1±0.4 mV
SMILES: O=C1O[C@H](C(O)CO)C(O)=C1O (stereo partly drawn) [L-ascorbic acid, L-xyloascorbic acid]
cAMP level stimulated by 100 nM forskolin ([1]; 300 μM L-ascorbate + 100 nM forskolin): did not alter the elevated cAMP level | resting intracellular cAMP level ([1]; L-ascorbate from 100 μM to 10 mM, 15 min): did not result in a detectable increase | concentrations causing maximal stimulation (Calu-3 airway epithelia; FIG. 21B): > 300 µM | transepithelial Cl currents (ISC) stimulated to (Calu-3 airway epithelia; apical exposure to maximal concentrations of L-ascorbic acid, n=22): 96±11 μA/cm^2 | ΔICl after forskolin prestimulation (Calu-3 airway epithelia; ascorbate at 100 μM after forskolin, n=4, not different from zero): −1.5±3.5 μA/cm^2 | ascorbate-stimulated Cl secretion in absence of extracellular Na (Calu-3 airway epithelia; no Na on the mucosal side): significantly reduced | Cl secretion stimulated, % of the currents elicited by forskolin (Calu-3 airway epithelia; on average): 68%
